Patent publication US9790169B2, “IDO inhibitors” (BRISTOL-MYERS SQUIBB COMPANY, priority 2015, dated 2017)

Biological target: human IDO1 (Homo sapiens, UniProt P14902)
Experiment: Assessment of human IDO-1 inhibitory activity in HEK cells (human IDO1/HEK293 cells, kynurenine read-out with Ehrlich reagent, absorbance 490 nm)
Type: cell-based
Design: expressed in transfected cells
Conditions: HEK Human IDO-1 cellular assay
Method in brief: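 Kynurenine output from stably IDO1-transfected HEK293 cells (10,000/well, phenol red-free RPMI, 10% FBS) after 20 h compound exposure at 37 °C. The reaction was stopped with 0.2% TCA and heated 30 min at 50 °C, then the supernatant was mixed with Ehrlich reagent and read at 490 nm. IC50 was set against DMSO and a 500 nM reference standard as 0 and 100% inhibition.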

Chain of human IDO1 (P14902 whole entry): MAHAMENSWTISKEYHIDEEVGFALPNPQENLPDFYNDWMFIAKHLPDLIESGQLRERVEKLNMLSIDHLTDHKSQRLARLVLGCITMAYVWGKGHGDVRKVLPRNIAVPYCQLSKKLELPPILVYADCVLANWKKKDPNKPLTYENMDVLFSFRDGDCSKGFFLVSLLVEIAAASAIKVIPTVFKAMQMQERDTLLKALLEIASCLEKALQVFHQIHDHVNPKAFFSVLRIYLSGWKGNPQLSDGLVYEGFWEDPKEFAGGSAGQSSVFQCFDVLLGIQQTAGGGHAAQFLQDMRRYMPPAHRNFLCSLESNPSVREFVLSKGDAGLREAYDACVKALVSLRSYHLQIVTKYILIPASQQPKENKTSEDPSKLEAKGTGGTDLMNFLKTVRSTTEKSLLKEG

| Compound | IC50 [nM] |
| --- | --- |
| CC[C@H](CC(=O)O)c1ccc(N2CCOC[C@@H]2C(C)C)c(NC(=O)Nc2ccc(OC)cc2F)c1 (single isomer, unassigned) [Example 87] | > 50 |
| CCCN(c1ccc([C@@H](CC)CC(=O)O)cc1Nc1ccc(C#N)cc1)C1CCOCC1 (single isomer, unassigned) [Example 536] | < 5 |
| CCN(c1ccc(C(C)CC(=O)O)cc1Nc1cnc(C)nc1)C1CCOCC1 (single isomer, unassigned) [Example 623, 3-(4-(ethyl(tetrahydro-2H-pyran-4-yl)amino)-3-((2-methylpyrimidin-5-yl)amino)phenyl)butanoic acid] | < 50 |
| CCC(CC(=O)O)c1ccc(N(CC)C2CCCOC2)c(NC(=O)Nc2ccc(C)cc2)c1 (single isomer, unassigned) [Example 73 D2, 3-(4-(Ethyl(tetrahydro-2H-pyran-3-yl)amino)-3-(3-(p-tolyl)ureido)phenyl)pentanoic acid] | < 5 |
| CCCN(c1ccc([C@@H](CC)CC(=O)O)cc1Nc1ccc(F)cc1)C1CCOCC1 (single isomer, unassigned) [Example 538] | < 5 |
| CCOc1ncc(Nc2cc([C@H](CC)CC(=O)O)ccc2N(CC)C2CCOCC2)cn1 (single isomer, unassigned) [Example 498] | < 5 |
| CCOc1ncc(Nc2cc([C@@H](CC)CC(=O)O)ccc2N2CCOC[C@@H]2C(C)C)cn1 (single isomer, unassigned) [Example 79] | > 50 |
| CC[C@H](CC(=O)O)c1ccc(N(CC)C2CCOCC2)c(NC(=O)Nc2ccc(OC)cc2F)c1 (single isomer, unassigned) [Example 530] | < 5 |
| CCc1ccc(Nc2cc(C(C)(C)CC(=O)O)ccc2N2C[C@@H](C)O[C@@H](C)C2)cc1 [Example 734, 3-(4-((2S,6R)-2,6-dimethylmorpholino)-3-((4-ethylphenyl)amino)phenyl)-3-methylbutanoic acid] | > 50 |
| CCN(c1ccc(C(C)CC(=O)O)cc1NC(=O)Nc1ccc(Cl)cc1F)C1CCOCC1 (single isomer, unassigned) [Example 637 E1, 3-(3-(3-(4-Chloro-2-fluorophenyl)ureido)-4-(ethyl(tetrahydro-2H-pyran-4-yl)amino)phenyl)butanoic acid] | < 5 |
| CCN(c1ccc([C@@H](COC)CC(=O)O)cc1Nc1ccc(C)cc1)C1CCOCC1 (single isomer, unassigned) [Example 373] | < 5 |
| CC[C@H](CC(=O)O)c1ccc(N(CC2CC2)CC(C)(C)O)c(Nc2ccc(Cl)cc2)c1 (single isomer, unassigned) [Example 271] | < 5 |
| CC[C@@H](CC(=O)O)c1ccc(N(CC)C2CCOCC2)c(Nc2nc3cc(C)nn3cc2F)c1 (single isomer, unassigned) [Example 469] | > 50 |
| CC[C@H](CC(=O)O)c1ccc(N(CC(C)(C)O)C2CCOCC2)c(Nc2ccc(Cl)c(OCC(F)(F)F)c2)c1 (single isomer, unassigned) [Example 205] | < 50 |
| CCOc1ncc(Nc2cc([C@@H](COC)CC(=O)O)ccc2N(CC)C2CCOCC2)cn1 (single isomer, unassigned) [Example 351] | < 50 |
| CCN(c1ccc(C(C)CC(=O)O)cc1Nc1cnc(OC)nc1)C1CCOCC1 (single isomer, unassigned) [Example 633, 3-(4-(ethyl(tetrahydro-2H-pyran-4-yl)amino)-3-((2-methoxypyrimidin-5-yl)amino)phenyl)butanoic acid] | < 50 |
| CCOc1ccc(NC(=O)Nc2cc([C@@H](CC)CC(=O)O)ccc2N(CC(C)C)C2CCS(=O)(=O)CC2)cc1 (single isomer, unassigned) [Example 217] | > 50 |
| CC[C@H](CC(=O)O)c1ccc(N(CC(C)(C)O)C2CCCCC2)c(Nc2ccc(OC(F)F)cc2)c1 (single isomer, unassigned) [Example 237] | < 5 |
| CC[C@@H](CC(=O)O)c1ccc(N(CC)C2CCOCC2)c(NC(=O)Nc2cc(C)on2)c1 (single isomer, unassigned) [Example 497] | > 50 |
| CC[C@@H](CC(=O)O)c1ccc(N(CC)C2CCOCC2)c(Nc2cnc(OC)nc2)c1 (single isomer, unassigned) [Example 479] | < 5 |
| CCC(CC(=O)O)c1ccc(N(CC2CC2)C(C)C)c(Nc2ccc3c(c2)OC(F)(F)O3)c1 (single isomer, unassigned) [Example 715, 3-(4-((cyclopropylmethyl) (isopropyl)amino)-3-((2,2-difluorobenzo[d][1,3]dioxol-5-yl)amino)phenyl) pentanoic acid] | < 50 |

The next lines start with the values.

| IC50 [nM] | Compound |
| --- | --- |
| < 5 | CCOc1ccc(NC(=O)Nc2cc(C(CC)CC(=O)O)c(F)cc2N(CC(C)C)C2CCCCC2)c(F)c1 (single isomer, unassigned) [Example 1117, 3-(4-(Cyclohexyl(isobutyl)amino)-5-(3-(4-ethoxy-2-fluorophenyl)ureido)-2-fluorophenyl)pentanoic acid] |
| < 5 | 3-(4-(isobutyl(tetrahydro-2H-pyran-4-yl)amino)-3-(3-(4-phenoxyphenyl)ureido)phenyl)butanoic acid [Example 959] |
| > 50 | CCC(CC(=O)O)c1ccc(N2CCOC[C@H]2C(C)C)c(NC(=O)Nc2ccc(OC)cc2F)c1 (single isomer, unassigned) [Example 897] |
| > 50 | COCC(CC(=O)O)c1ccc(N(CC(C)C)C2CCOCC2)c(NC(=O)Nc2cc(C)on2)c1 (single isomer, unassigned) [Example 1213, 3-(4-(Isobutyl(tetrahydro-2H-pyran-4-yl)amino)-3-(3-(5-methylisoxazol-3-yl)ureido)phenyl)-4-methoxybutanoic acid] |
| < 50 | COCC(CC(=O)O)c1ccc(N(CC(C)C)C2CCOCC2)c(NC(=O)Nc2ccc(Cl)cc2F)c1 (single isomer, unassigned) [Example 1210, 3-(3-(3-(4-Chloro-2-fluorophenyl)ureido)-4-(isobutyl(tetrahydro-2H-pyran-4-yl)amino)phenyl)-4-methoxybutanoic acid] |
| < 5 | CCOc1ccc(NC(=O)Nc2cc(C(CC)CC(=O)O)c(F)cc2N(CC(C)C)C2CCCCC2)cc1 (single isomer, unassigned) [Example 1108, 3-(4-(Cyclohexyl(isobutyl)amino)-5-(3-(4-ethoxyphenyl)ureido)-2-fluorophenyl)pentanoic acid] |
| < 50 | CCOc1ncc(Nc2cc([C@@H](CC)CC(=O)NS(C)(=O)=O)ccc2N(CC)C2CCOCC2)cn1 (stereo in doubt) [Example 1076, 3-(3-((2-Ethoxypyrimidin-5-yl)amino)-4-(ethyl(tetrahydro-2H-pyran-4-yl)amino)phenyl)-N-(methylsulfonyl)pentanamide] |
| > 50 | CC[C@@H](CC(=O)O)c1ccc(N2CCC[C@H]2C(C)(C)F)c(NC(=O)Nc2ccc(C)cc2)c1 (single isomer, unassigned) [Example 785] |
| > 50 | CCC(CC(=O)O)c1ccc(N2CCC[C@H]2C(C)(C)O)c(Nc2cnc(OC)nc2)c1 (single isomer, unassigned) [Example 824] |
| > 50 | CCOc1ccc(NC(=O)Nc2cc(C(COC)CC(=O)O)ccc2N(CC(C)C)C2CCOCC2)c(F)c1 (single isomer, unassigned) [Example 1215, 3-(3-(3-(4-Ethoxy-2-fluorophenyl)ureido)-4-(isobutyl(tetrahydro-2H-pyran-4-yl)amino)phenyl)-4-methoxybutanoic acid] |
| < 5 | CCC(CC(=O)O)c1cc(NC(=O)Nc2ccc(C)cc2)c(N(CC(C)C)CC(C)C)cc1F (racemic) [Example 1128, (±)-3-(4-(Diisobutylamino)-2-fluoro-5-(3-(p-tolyl)ureido)phenyl)pentanoic acid] |
| > 50 | CCC(CC(=O)O)c1ccc(N2CCOC[C@H]2C(C)C)c(NC(=O)Nc2ccc(C)cc2)c1 (single isomer, unassigned) [Example 895] |
| < 50 | COCC(CC(=O)O)c1ccc(N(CC(C)C)C2CCCCC2)c(NC(=O)Cc2ccccc2F)c1 (racemic) [Example 1230, (+/−)-3-(4-(Cyclohexyl(isobutyl)amino)-3-(2-(2-fluorophenyl)acetamido)phenyl)-4-methoxybutanoic acid] |
| < 50 | Cc1cc(NC(=O)Nc2cc(C(CC(=O)O)C3CC3)ccc2N(CC(C)C)C2CCOCC2)no1 (single isomer, unassigned) [Example 1201 Enantiomer 1, 3-Cyclopropyl-3-(4-(isobutyl(tetrahydro-2H-pyran-4-yl)amino)-3-(3-(5-methylisoxazol-3-yl)ureido)phenyl)propanoic acid] |
| < 5 | CC(C)CN(c1ccc(C(CC(=O)O)C2CC2)cc1NC(=O)Nc1ccc(Cl)cc1F)C1CCOCC1 (racemic) [Example 1198, (+/−)-3-(3-(3-(4-Chloro-2-fluorophenyl)ureido)-4-(isobutyl(tetrahydro-2H-pyran-4-yl)amino)phenyl)-3-cyclopropylpropanoic acid] |
| > 50 | CCOc1ncc(Nc2cc(C(CC)CC(=O)O)ccc2N2C[C@@H](C)O[C@@H](C)C2)cn1 (single isomer, unassigned) [Example 756] |
| < 50 | COCC(CC(=O)O)c1ccc(N(CC(C)C)C2CCCCC2)c(NC(=O)Cc2ccc(C)cc2)c1 (single isomer, unassigned) [Example 1237, 3-(4-(Cyclohexyl(isobutyl)amino)-3-(2-(p-tolyl)acetamido)phenyl)-4-methoxybutanoic acid] |
| < 5 | CCC(CC(=O)O)c1cc(NC(=O)Nc2ccc3c(c2)OCO3)c(N(CC(C)C)CC(C)C)cc1F (racemic) [Example 1134, (±)-3-(5-(3-(Benzo[d][1,3]dioxol-5-yl)ureido)-4-(diisobutylamino)-2-fluorophenyl)pentanoic acid] |
| > 50 | CC[C@@H](CC(=O)O)c1ccc(N2C[C@@H](C)O[C@@H](C)C2)c(NC(=O)Nc2ccc(C)cc2)c1 (single isomer, unassigned) [Example 754] |
| < 50 | CCC(CC(=O)O)c1ccc(N2CCOC[C@H]2C(C)C)c(NC(=O)Nc2ccc(Cl)cc2F)c1 (single isomer, unassigned) [Example 896] |
